According to US20260151350A1, “COMPOSITIONS AND METHODS FOR TARGETED DELIVERY TO CELLS” (The Board of Regents of The University of Texas System, priority 2021, published 2026):

Tested on: C57BL/6 mice
Experiment: Cy5-mRNA biodistribution, ex vivo organ fluorescence after IV injection
Type: in vivo, mouse
Details: 0.5 mg/kg mRNA IV, 6 h
Protocol: FIG. 1B illustrates ex vivo fluorescence of Cy5-labelled mRNA in major organs extracted from C57BL/6 mice intravenously injected with example SORT LNPs (as described herein) that incorporate increasing percentages of different SORT molecules (0.5 mg/kg mRNA/body weight, 6 h).
FIG. 1C illustrates relative average Cy5 fluorescence measured in the liver, lung, and spleen as a function of SORT molecule percent inclusion (0.5 mg/kg mRNA/body weight, n=2). SORT molecules promote mRNA biodistribution to target organs. Data are shown as mean±s.e.m.
We first investigated the biodistribution of mRNA encapsulated in example SORT LNPs to determine whether there was a correlation between the organs in which the SORT LNPs accumulated and their tissue-specific mRNA activity. We formulated example liver, lung, and spleen SORT LNPs encapsulating Cy5-labelled mRNA following the identical protocols and formulation parameters used in our previous publications. We administered each LNP IV to C57BL/6 mice and tracked the in vivo biodistribution of the Cy5-mRNA using fluorescence imaging. Six hours post-injection, organs were excised and imaged ex vivo (FIG. 1B). The average fluorescence produced by the liver, spleen, and lungs was quantified (FIG. 1C). […] Importantly, these tracking studies quantify where the example SORT LNPs biodistribute but not where mRNA is translated to protein (functional delivery).

CCCCCCCC/C=C\CCCCCCCC(=O)OCC(CN(C)C)OC(=O)CCCCCCC/C=C\CCCCCCCC (stereo not shown) [DODAP, 1,2-Dioleoyl-3-dimethylammonium-propane]
SORT molecule inclusion giving optimal liver biodistribution: 20%
